Measurements: US20260200946A1, “KRAS(G12V) INHIBITORS” (Ranok Therapeutics (Hangzhou) Co. Ltd., priority 2022, published 2026)

tested on: SW620 cells; assay: Cancer cell line proliferation (CellTiter-Glo), SW620; format: cell-based; settings: Homo sapiens, SW-620, SW620 colorectal adenocarcinoma, homozygous G12V, 72 hr
Method: Cell lines were cultured essentially according to ATCC recommendations. SW620 and NCIH727 cells were plated in 384-well tissue culture plates at 1,000 cells/well and incubated at 37° C./5% CO2 for 72 hr in 40 μl of media. […] Each cell line was then treated with test compounds at various concentrations with a final concentration of 0.5% DMSO/well, and then incubated at 37° C./5% CO2 for 72 hr. 40 μl of CellTiter-Glo® Reagent (Promega Corporation, Madison, WI) was added to each well and processed according manufacturer's protocol. Results were analyzed and IC50 values were calculated in GraphPad 8.0 software.

Structure (SMILES) | EC50
C#Cc1c(F)ccc2cc(O)cc(-c3nc(OC)c4c(N5CC6CCC(C5)N6C(=O)NC(C)C#N)nc(OCC5(CN6CCC(F)CC6)CC5)nc4c3F)c12 (stereo not drawn) [Example 38] | 0.1 to 1 µM
C#Cc1c(F)ccc2cc(O)cc(-c3ncc4c(N5CC6CCC(C5)N6C(=O)CC(F)(F)F)nc(OCC5(CN6CCC(F)CC6)CC5)nc4c3F)c12 [Example 39] | > 1 µM
C#Cc1c(F)ccc2cc(O)cc(-c3ncc4c(N5CC6CCC(C5)N6C(=O)OC(C)(C)C)nc(OCC5(CN6CCC(F)CC6)CC5)nc4c3F)c12 [Example 40] | > 1 µM
C#Cc1c(F)ccc2cc(O)cc(-c3ncc4c(N5CC6CCC(C5)N6C(C)=O)nc(OCC5(CN6CCC(F)CC6)CC5)nc4c3F)c12 [Example 41] | > 1 µM
C#Cc1c(F)ccc2cc(O)cc(-c3ncc4c(N5CC6CCC(C5)N6C(=O)OC(C)C)nc(OCC5(CN6CCC(F)CC6)CC5)nc4c3F)c12 [Example 42] | > 1 µM
C#Cc1c(F)ccc2cc(O)cc(-c3ncc4c(N5CC6CCC(C5)N6C(=O)C(C)(C)C)nc(OCC5(CN6CCC(F)CC6)CC5)nc4c3F)c12 [Example 43] | > 1 µM
C#Cc1c(F)ccc2cc(O)cc(-c3nc(OC)c4c(N5CC6CCC(C5)N6C(=O)C5CC5(F)F)nc(OCC5(CN6CCC(F)CC6)CC5)nc4c3F)c12 (stereo not drawn) [Example 44] | 0.1 to 1 µM
C#Cc1c(F)ccc2cc(O)cc(-c3nc(OC)c4c(N5CC6CCC(C5)N6C(=O)C5(C(F)(F)F)CC5)nc(OCC5(CN6CCC(F)CC6)CC5)nc4c3F)c12 [Example 45] | > 1 µM
C#Cc1c(F)ccc2cc(O)cc(-c3nc(OC)c4c(N5CC6CCC(C5)N6C(=O)NC5CC5)nc(OCC5(CN6CCC(F)CC6)CC5)nc4c3F)c12 [Example 46] | 0.1 to 1 µM
C#CCCC(=O)N1C2CCC1CN(c1nc(OCC3(CN4CCC(F)CC4)CC3)nc3c(F)c(-c4cc(O)cc5ccc(F)c(C#C)c45)ncc13)C2 [Example 47] | > 1 µM

tested on: NCIH727 cells; assay: Cancer cell line proliferation (CellTiter-Glo), NCI-H727; format: cell-based; settings: Homo sapiens, 72 h, NCIH727 lung carcinoid, heterozygous G12V
Outline: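 NCI-H727 cells (1,000/well) were grown 72 h at 37 °C/5% CO2, then exposed to compound at various concentrations (0.5% DMSO final) for a further 72 h. Viability was read by CellTiter-Glo luminescence, and IC50 values were calculated from the dose-response.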

Structure (SMILES) | EC50
C#Cc1c(F)ccc2cc(O)cc(-c3nc(OC)c4c(N5CC6CCC(C5)N6C(=O)NC(C)C#N)nc(OCC5(CN6CCC(F)CC6)CC5)nc4c3F)c12 (stereo not drawn) [Example 38] | 0.1 to 1 µM
C#Cc1c(F)ccc2cc(O)cc(-c3ncc4c(N5CC6CCC(C5)N6C(=O)CC(F)(F)F)nc(OCC5(CN6CCC(F)CC6)CC5)nc4c3F)c12 [Example 39] | > 1 µM
C#Cc1c(F)ccc2cc(O)cc(-c3ncc4c(N5CC6CCC(C5)N6C(=O)OC(C)(C)C)nc(OCC5(CN6CCC(F)CC6)CC5)nc4c3F)c12 [Example 40] | > 1 µM
C#Cc1c(F)ccc2cc(O)cc(-c3ncc4c(N5CC6CCC(C5)N6C(C)=O)nc(OCC5(CN6CCC(F)CC6)CC5)nc4c3F)c12 [Example 41] | > 1 µM
C#Cc1c(F)ccc2cc(O)cc(-c3ncc4c(N5CC6CCC(C5)N6C(=O)OC(C)C)nc(OCC5(CN6CCC(F)CC6)CC5)nc4c3F)c12 [Example 42] | > 1 µM
C#Cc1c(F)ccc2cc(O)cc(-c3ncc4c(N5CC6CCC(C5)N6C(=O)C(C)(C)C)nc(OCC5(CN6CCC(F)CC6)CC5)nc4c3F)c12 [Example 43] | > 1 µM
C#Cc1c(F)ccc2cc(O)cc(-c3nc(OC)c4c(N5CC6CCC(C5)N6C(=O)C5CC5(F)F)nc(OCC5(CN6CCC(F)CC6)CC5)nc4c3F)c12 (stereo not drawn) [Example 44] | 0.1 to 1 µM
C#Cc1c(F)ccc2cc(O)cc(-c3nc(OC)c4c(N5CC6CCC(C5)N6C(=O)C5(C(F)(F)F)CC5)nc(OCC5(CN6CCC(F)CC6)CC5)nc4c3F)c12 [Example 45] | > 1 µM
C#Cc1c(F)ccc2cc(O)cc(-c3nc(OC)c4c(N5CC6CCC(C5)N6C(=O)NC5CC5)nc(OCC5(CN6CCC(F)CC6)CC5)nc4c3F)c12 [Example 46] | 0.1 to 1 µM
C#CCCC(=O)N1C2CCC1CN(c1nc(OCC3(CN4CCC(F)CC4)CC3)nc3c(F)c(-c4cc(O)cc5ccc(F)c(C#C)c45)ncc13)C2 [Example 47] | > 1 µM

molecular target: T1, KRAS(G12V)/SOS1 (Homo sapiens, UniProt P01116, G12V); assay: KRAS(G12V)/SOS1 homogeneous time-resolved fluorescence (HTRF) assay; format: binding; settings: absence of GTP; 4° C., 3 hours; read-out: HTRF of KRASG12V-SOS1
T1 construct: purchased Cisbio 63ADK000CB18PEH
T1 sequence (P01116 1-188 isoform P01116-2 G12V): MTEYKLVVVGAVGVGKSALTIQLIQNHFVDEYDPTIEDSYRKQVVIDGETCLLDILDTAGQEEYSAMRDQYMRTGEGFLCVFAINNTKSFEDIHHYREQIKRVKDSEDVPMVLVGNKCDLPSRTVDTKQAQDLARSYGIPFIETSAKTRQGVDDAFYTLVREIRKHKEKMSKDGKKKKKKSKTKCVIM
Method: Binding of test compounds to KRAS(G12V) target protein, which in turn blocks KRAS(G12V) interaction with the SOS1 protein, was measured in the absences of GTP by homogeneous time-resolved fluorescence using the KRAS-G12V/SOS1 Binding Assay Kit (Cisbio, 63ADK000CB18PEH), following the manufacturer's instructions, except as noted. 3-fold serial dilutions of each test compound were prepared ranging from 20 µM to 1.02 nM. The test compound was mixed and incubated with reaction components, incubated in a sealed plate at 4° C. for 3 hours and fluorescence was measured using a PerkinElmer Envision plate reader. The KRAS(G12V)-SOS1 IC50 values (the concentration of 50% of the maximal inhibition) were calculated using GraphPad Prism 8.0 software.

Structure (SMILES) | IC50
C#Cc1c(F)ccc2cc(O)cc(-c3nc(OC)c4c(N5CC6CCC(C5)N6C(=O)NC(C)C#N)nc(OCC5(CN6CCC(F)CC6)CC5)nc4c3F)c12 (stereo not drawn) [Example 38] | < 0.1 µM
C#Cc1c(F)ccc2cc(O)cc(-c3ncc4c(N5CC6CCC(C5)N6C(=O)CC(F)(F)F)nc(OCC5(CN6CCC(F)CC6)CC5)nc4c3F)c12 [Example 39] | 0.1 to 1 µM
C#Cc1c(F)ccc2cc(O)cc(-c3ncc4c(N5CC6CCC(C5)N6C(=O)OC(C)(C)C)nc(OCC5(CN6CCC(F)CC6)CC5)nc4c3F)c12 [Example 40] | 0.1 to 1 µM
C#Cc1c(F)ccc2cc(O)cc(-c3ncc4c(N5CC6CCC(C5)N6C(C)=O)nc(OCC5(CN6CCC(F)CC6)CC5)nc4c3F)c12 [Example 41] | 0.1 to 1 µM
C#Cc1c(F)ccc2cc(O)cc(-c3ncc4c(N5CC6CCC(C5)N6C(=O)OC(C)C)nc(OCC5(CN6CCC(F)CC6)CC5)nc4c3F)c12 [Example 42] | 0.1 to 1 µM
C#Cc1c(F)ccc2cc(O)cc(-c3ncc4c(N5CC6CCC(C5)N6C(=O)C(C)(C)C)nc(OCC5(CN6CCC(F)CC6)CC5)nc4c3F)c12 [Example 43] | 0.1 to 1 µM
C#Cc1c(F)ccc2cc(O)cc(-c3nc(OC)c4c(N5CC6CCC(C5)N6C(=O)C5CC5(F)F)nc(OCC5(CN6CCC(F)CC6)CC5)nc4c3F)c12 (stereo not drawn) [Example 44] | < 0.1 µM
C#Cc1c(F)ccc2cc(O)cc(-c3nc(OC)c4c(N5CC6CCC(C5)N6C(=O)C5(C(F)(F)F)CC5)nc(OCC5(CN6CCC(F)CC6)CC5)nc4c3F)c12 [Example 45] | < 0.1 µM
C#Cc1c(F)ccc2cc(O)cc(-c3nc(OC)c4c(N5CC6CCC(C5)N6C(=O)NC5CC5)nc(OCC5(CN6CCC(F)CC6)CC5)nc4c3F)c12 [Example 46] | < 0.1 µM
C#CCCC(=O)N1C2CCC1CN(c1nc(OCC3(CN4CCC(F)CC4)CC3)nc3c(F)c(-c4cc(O)cc5ccc(F)c(C#C)c45)ncc13)C2 [Example 47] | < 0.1 µM
